Experimental data taken from ChEMBL document CHEMBL5154938, “A Small-Molecule Oral Agonist of the Human Glucagon-like Peptide-1 Receptor” (J Med Chem, 2022).
pEC50, pIC50, pKi: −log10 of the molar value. Each block holds one molecule with its values, some of them ahead of it. Active and inactive are the calls of the source. No cut-off for these calls is given here.

How the values were obtained:
[1] = Cmax in Wistar Han rat at 100 mg/kg, po measured upto 24 hrs by LC-MS/MS analysis; assay type: ADME, organism-based; set-up: time < 24 hrs, dose 100 mg/kg, route po; conditions: in vivo
[2] = target: T1, Glucagon-like peptide 1 receptor (Homo sapiens, UniProt P43220); assay: Agonist activity at human GLP-1R expressed in CHO-K1 cells assessed as cAMP accumulation by measuring maximum efficacy at 20 uM incubated for 30 mins in presence of BETP by BETP sensitized time-resolved fluorescence assay relative to control; assay type: functional, cell-based; conditions: filed as agonist
T1 sequence (P43220 whole entry): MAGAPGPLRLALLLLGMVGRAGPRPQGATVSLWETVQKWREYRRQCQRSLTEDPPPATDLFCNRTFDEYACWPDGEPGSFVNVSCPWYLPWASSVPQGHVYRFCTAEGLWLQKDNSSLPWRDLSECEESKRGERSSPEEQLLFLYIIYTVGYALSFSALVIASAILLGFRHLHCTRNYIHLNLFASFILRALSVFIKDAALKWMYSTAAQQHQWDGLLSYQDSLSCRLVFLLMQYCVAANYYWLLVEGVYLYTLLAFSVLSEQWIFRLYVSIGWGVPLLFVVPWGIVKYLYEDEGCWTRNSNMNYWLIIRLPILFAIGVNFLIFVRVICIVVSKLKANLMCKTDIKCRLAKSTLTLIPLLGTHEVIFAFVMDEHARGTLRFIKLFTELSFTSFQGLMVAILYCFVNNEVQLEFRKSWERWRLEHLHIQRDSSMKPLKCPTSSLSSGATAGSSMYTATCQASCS

[3] = Lipophilicity, logD of compound at pH 7.4 by shake-flash method; assay type: physicochemical; conditions: buffer
[4] = Metabolic stability in human liver microsomes assessed as intrinsic clearance in the presence of NADPH by HPLC-MS/MS analysis; assay type: ADME, Microsome
[5] = target: Voltage-gated inwardly rectifying potassium channel KCNH2 (Homo sapiens, UniProt Q12809); assay: Inhibition of hERG ion channel by patch-clamp method; assay type: toxicity
Sequence of Voltage-gated inwardly rectifying potassium channel KCNH2 (Q12809 whole entry): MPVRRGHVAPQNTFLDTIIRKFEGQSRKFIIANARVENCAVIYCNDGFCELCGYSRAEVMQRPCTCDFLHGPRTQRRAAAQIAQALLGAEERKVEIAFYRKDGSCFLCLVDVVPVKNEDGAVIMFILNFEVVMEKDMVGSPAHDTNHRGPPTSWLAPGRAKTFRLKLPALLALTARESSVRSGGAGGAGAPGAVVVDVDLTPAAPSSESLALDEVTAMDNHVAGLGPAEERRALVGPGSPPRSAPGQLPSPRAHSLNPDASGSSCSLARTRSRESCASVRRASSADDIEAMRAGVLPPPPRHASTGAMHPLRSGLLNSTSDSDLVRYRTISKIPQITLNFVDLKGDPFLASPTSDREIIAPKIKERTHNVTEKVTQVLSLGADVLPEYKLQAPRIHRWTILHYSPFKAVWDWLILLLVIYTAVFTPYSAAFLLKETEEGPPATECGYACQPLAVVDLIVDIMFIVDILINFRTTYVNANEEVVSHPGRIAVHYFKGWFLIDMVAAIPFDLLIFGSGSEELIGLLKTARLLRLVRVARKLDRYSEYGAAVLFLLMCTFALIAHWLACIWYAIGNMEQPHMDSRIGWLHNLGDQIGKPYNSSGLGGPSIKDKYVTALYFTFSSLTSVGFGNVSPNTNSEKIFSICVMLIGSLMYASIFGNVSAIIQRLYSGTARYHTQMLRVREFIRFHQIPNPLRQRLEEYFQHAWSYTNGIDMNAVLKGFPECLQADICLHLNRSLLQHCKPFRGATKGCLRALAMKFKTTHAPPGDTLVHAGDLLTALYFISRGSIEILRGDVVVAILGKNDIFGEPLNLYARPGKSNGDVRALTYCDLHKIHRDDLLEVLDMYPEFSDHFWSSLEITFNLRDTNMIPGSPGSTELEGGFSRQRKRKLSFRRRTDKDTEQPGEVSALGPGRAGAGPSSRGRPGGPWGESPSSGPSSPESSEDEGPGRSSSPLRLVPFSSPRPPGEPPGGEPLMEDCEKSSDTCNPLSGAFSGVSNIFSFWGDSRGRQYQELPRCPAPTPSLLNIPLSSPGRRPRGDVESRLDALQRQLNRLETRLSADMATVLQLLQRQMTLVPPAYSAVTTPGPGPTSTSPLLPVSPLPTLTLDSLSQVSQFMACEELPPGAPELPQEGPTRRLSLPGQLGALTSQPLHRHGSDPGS

[6] = Activation of rabbit GLP-1R expressed in CHO cells assessed as increase in cAMP accumulation; assay type: cell-based; conditions: Oryctolagus cuniculus
[7] = Cmax in Wistar Han rat at 5 mg/kg, po measured upto 24 hrs by LC-MS/MS analysis; assay type: ADME, organism-based; set-up: dose 5 mg/kg, time < 24 hrs, route po; conditions: in vivo
CHO = assay: Activation of mouse GLP-1R S33W mutant expressed in CHO cells assessed as increase in cAMP accumulation; assay type: cell-based; conditions: filed as activator
[8] = Cmax in cynomologus monkey at 5 mg/kg, po measured upto 24 hrs by LC-MS/MS analysis; assay type: ADME, organism-based, Macaca fascicularis; set-up: time < 24 hrs, dose 5 mg/kg, route po; conditions: cynomolgus monkey, in vivo
[9] = Cmax in cynomologus monkey at 100 mg/kg, po measured upto 24 hrs by LC-MS/MS analysis; assay type: ADME, organism-based, Macaca fascicularis; set-up: time < 24 hrs, dose 100 mg/kg, route po; conditions: cynomolgus monkey, in vivo
[10] = AUC(0 to infinity) in cynomologus monkey at 1 mg/kg, iv measured upto 24 hrs by LC-MS/MS analysis; assay type: ADME, organism-based, Macaca fascicularis; set-up: dose 1 mg/kg, time < 24 hrs, route iv; conditions: cynomolgus monkey, in vivo
[11] = AUC(0 to infinity) in cynomologus monkey at 5 mg/kg, po measured upto 24 hrs by LC-MS/MS analysis; assay type: ADME, organism-based, Macaca fascicularis; set-up: time < 24 hrs, dose 5 mg/kg, route po; conditions: cynomolgus monkey, in vivo
[12] = AUC(0 to infinity) in cynomologus monkey at 100 mg/kg, po measured upto 24 hrs by LC-MS/MS analysis; assay type: ADME, organism-based, Macaca fascicularis; set-up: dose 100 mg/kg, time < 24 hrs, route po; conditions: cynomolgus monkey, in vivo
[13] = AUC (0 to infinity) in Wistar Han rat at 1 mg/kg, iv measured upto 24 hrs by LC-MS/MS analysis; assay type: ADME, organism-based; set-up: time < 24 hrs, dose 1 mg/kg, route iv; conditions: in vivo
[14] = AUC (0 to infinity) in Wistar Han rat at 5 mg/kg, po measured upto 24 hrs by LC-MS/MS analysis; assay type: ADME, organism-based; set-up: dose 5 mg/kg, time < 24 hrs, route po; conditions: in vivo
[15] = AUC (0 to infinity) in Wistar Han rat at 100 mg/kg, po measured upto 24 hrs by LC-MS/MS analysis; assay type: ADME, organism-based; set-up: dose 100 mg/kg, time < 24 hrs, route po; conditions: in vivo
[16] = Volume of distribution at steady state in Wistar Han rat at 1 mg/kg, iv measured upto 24 hrs by LC-MS/MS analysis; assay type: ADME, organism-based; conditions: in vivo
[17] = Volume of distribution at steady state in cynomologus monkey at 1 mg/kg, iv measured upto 24 hrs by LC-MS/MS analysis; assay type: ADME, organism-based, Macaca fascicularis; conditions: cynomolgus monkey, in vivo
[18] = Oral bioavailability in cynomologus monkey at 5 mg/kg measured upto 24 hrs by LC-MS/MS analysis; assay type: ADME, organism-based, Macaca fascicularis; conditions: cynomolgus monkey, in vivo
[19] = Oral bioavailability in cynomologus monkey at 100 mg/kg measured upto 24 hrs by LC-MS/MS analysis; assay type: ADME, organism-based, Macaca fascicularis; conditions: cynomolgus monkey, in vivo
[20] = Oral bioavailability in Wistar Han rat at 5 mg/kg measured upto 24 hrs by LC-MS/MS analysis; assay type: ADME, organism-based; conditions: in vivo
[21] = Oral bioavailability in Wistar Han rat at 100 mg/kg measured upto 24 hrs by LC-MS/MS analysis; assay type: ADME, organism-based; conditions: in vivo
Macaca fascicularis [22] = assay: Induction of insulin secretion in cynomologus monkey assessed as induction of glucose-induced insulin secretion at 1.8 mg, iv dosed once daily by IVGTT; assay type: functional, organism-based; conditions: DDE = dose-dependent effect
Macaca fascicularis [23] = assay: Induction of insulin secretion in cynomologus monkey assessed as glucose disappearance at 1.8 mg, iv dosed once daily by IVGTT assay; assay type: functional, organism-based
Cynomolgus monkey = assay: Reduction in food intake in cynomologus monkey at 2.9 mg/kg, po administered once daily for 2 days relative to control; assay type: functional, organism-based; conditions: Macaca fascicularis, time 2.0 day
[24] = target: T1, Glucagon-like peptide 1 receptor; assay: Agonist activity at FAP-tagged human GLP-1R expressed in HEK293 cells assessed as receptor internalization measured after 30 mins by nuclear staining based confocal microscopic analysis; assay type: functional, cell-based; conditions: filed as agonist
in vitro = conditions: human, hepatocytes
[25] = target: T1, Glucagon-like peptide 1 receptor; assay: Agonist activity at human GLP-1R expressed in PathHunter CHO-K1 GLP1R beta-arrestin-2 cell assessed as induction of beta-arrestin 2 recruitment incubated for 90 mins in presence of BETP by PathHunter assay; assay type: functional, cell-based
[26] = target: T1, Glucagon-like peptide 1 receptor; assay: Agonist activity at human GLP-1R expressed in PathHunter CHO-K1 GLP1R beta-arrestin-2 cells assessed as induction of beta-arrestin 2 recruitment by measuring maximum efficacy incubated for 90 mins in presence of BETP by PathHunter assay relative to control; assay type: functional, cell-based
[27] = target: T1, Glucagon-like peptide 1 receptor
[28] = target: T1, Glucagon-like peptide 1 receptor; remark: listed apart in the source
[29] = target: T1, Glucagon-like peptide 1 receptor; remark: listed apart in the source
[30] = target: T1, Glucagon-like peptide 1 receptor; remark: listed apart in the source
[31] = target: T1, Glucagon-like peptide 1 receptor; remark: listed apart in the source
[32] = target: T1, Glucagon-like peptide 1 receptor; remark: listed apart in the source
[33] = target: T1, Glucagon-like peptide 1 receptor; assay: biochemical
[34] = Lipophilicity, logD of compound at pH 7.4 by RP-HPLC analysis; assay type: physicochemical; conditions: buffer

Compound: N#Cc1ccc(COc2cccc(C3CCN(Cc4nc5ccc(C(=O)O)cc5n4C[C@@H]4CCO4)CC3)n2)c(F)c1 [DANUGLIPRON]
Cmax [1]: 2820 ng/mL | Emax [2]: 110% | logD [3]: 1.8 | CLH [4]: < 10 µL/min | pIC50 [5]: 5.37 | pEC50 [6]: < 4.70 | Cmax [7]: 141 ng/mL | Activity (CHO): Active | Cmax [8]: 68.7 ng/mL | Cmax [9]: 1150 ng/mL | AUC [10]: 1240 ng·h/mL | AUC [11]: 303 ng·h/mL | AUC [12]: 11000 ng·h/mL | AUC [13]: 296 ng·h/mL | AUC [14]: 168 ng·h/mL | AUC [15]: 11900 ng·h/mL | Vdss [16]: 0.86 L/kg | Vdss [17]: 0.266 L/kg | bioavailability [18]: 5% | bioavailability [19]: 9% | bioavailability [20]: 11% | bioavailability [21]: 39% | Activity (Macaca fascicularis [22]): Dde | Activity (Macaca fascicularis [23]): Active | Activity (Cynomolgus monkey): Active | Activity [24]: Active | hepatocyte CLint (in vitro): 6.9 µL/min/1e6 cells

Compound: Cn1c(CN2CCC(c3nc(OCc4ccc(Cl)cc4F)ncc3F)CC2)nc2ccccc21
logD [34]: 5.6 | pIC50 [5]: 5.27 | pEC50 [27]: < 5.00 | pEC50 [28]: < 4.70 | pEC50 [29]: < 4.70 | hepatocyte CLint (in vitro): 48 µL/min/1e6 cells

Now from value to molecule, other results behind:

pEC50 [25]: 5.82 | Emax [26]: 23% | logD [3]: 2.3 | pEC50 [27]: 7.36 | pEC50 [28]: 5.34 | pEC50 [29]: < 4.70 | pEC50 [30]: < 4.52 | hepatocyte CLint (in vitro): 37 µL/min/1e6 cells
Compound: Cn1c(CN2CCC(c3cccc(OCc4ccc(Cl)cc4F)n3)CC2)nc2nccc(NCC(=O)O)c21
Emax [2]: 90% | pIC50 [5]: < 5.00

pEC50 [28]: 9.12 | pEC50 [29]: 8.07 | pEC50 [31]: 6.60 | pEC50 [32]: 6.21 | pKi [33]: 7.29
Compound: CCn1cncc1Cn1c(CN2CCC(c3cccc(OCc4ccc(F)cc4F)n3)CC2)nc2ccc(C(=O)O)cc21

pEC50 [25]: 5.55 | Emax ([26]; filed as agonist): 99% | logD [3]: 2 | pEC50 [27]: 8.17 | pEC50 [28]: 7.02 | pEC50 [29]: 5.68 | pEC50 [30]: < 4.52 | hepatocyte CLint (in vitro): 31 µL/min/1e6 cells
Compound: Cn1c(CN2CCC(c3cccc(OCc4ccc(Cl)cc4F)n3)CC2)nc2ccc(C(=O)O)nc21
Emax [2]: 84% | pIC50 [5]: < 4.00

pEC50 [25]: 5.02 | Emax ([26]; filed as agonist): 100% | logD [34]: 5.7 | pEC50 [27]: 7.11 | pEC50 [28]: 5.59 | pEC50 [29]: < 4.70 | pEC50 [30]: < 4.52 | hepatocyte CLint (in vitro): 55 µL/min/1e6 cells
Compound: Cn1c(CN2CCC(c3cccc(OCc4ccc(Cl)cc4F)n3)CC2)nc2ccncc21
Emax [2]: 86% | pIC50 [5]: 5.25
